The text below walks through data of patent US20100184809A1, “Heterocyclic FXR Binding Compounds” (PHENEX PHARMACEUTICALS AG, priority 2006, published 2010).

In brackets after ≈: the same amount, converted by molar mass.

As a reminder, the solubility is the concentration that dissolves in the medium under given conditions. A word on the Papp A→B: it is the apparent permeability from the apical to the basolateral side of a cell layer. The low end stands for slow passage, the high end for fast passage. One may read the IC50 as the concentration that gives 50% inhibition. The term fraction unbound denotes the share of the substance not bound to proteins or other matrix. What is called melting point is the temperature, or range, at which the solid turns liquid.

The nature of data set [1]: Aqueous solubility assay, Protocol A, nephelometry method. It is filed as physicochemical. Conditions: PBS with 5% DMSO, aqueous with cosolvent or surfactant or cyclodextrin, kinetic from dmso stock, PBS pH 7.4, 5% DMSO, 23° C., 24 hours, read-out: Aqueous solubility pH 7.4. As for the experimental part: Aqueous solubility of compounds was determined by nephelometry or by the shake-flask method as follows:
Protocol A, nephelometry method:
Solubility of compounds was measured in PBS (pH 7.4), 5% DMSO at 23° C. Nepheloskan Ascent (Thermo Electron Corporation) nephelometer was used for measurement of light scattering. Tested compounds were dissolved in DMSO to 10 mM. Prior to measurement the compounds were further diluted with PBS in the wells to final compound concentrations of 100, 70, 50, 35, 25, 17, 12 and <10 μg/ml.
The plates were incubated at room temperature for 24 hours to reach equilibrium and the scattered light was measured. Assay validation: Aqueous solubility of acetylsalicylic acid was determined to validate the assay.
The following compounds of Table 2 exemplify such solubility with “−−” meaning solubility<2 μM, “+” meaning 2 μM solubility 100 μM and “++” meaning solubility

A further data set can be described thus: Caco-2 permeability. The class given is in vitro ADME. The conditions noted are these: human, apical to basolateral. As for the experimental part:
Caco-2 cells are widely used as an in vitro model for predicting human drug absorption. The Caco-2 cell line is derived from a human colorectal carcinoma, and when cultured, the cells spontaneously differentiate into monolayers of polarised enterocytes. The cells are seeded on Transwell™ plates and form a confluent monolayer over 20 days prior to the experiment. On day 20, the test compound is added to the apical side of the membrane and the transport of the compound across the monolayer is monitored over a 2 hour time period. To study drug efflux, it is also necessary to investigate transport of the compound from the basolateral compartment to the apical compartment. The permeability coefficient (Papp) is calculated from the following equation: […]
Where dQ/dt is the rate of permeation of the drug across the cells, CO is the donor compartment concentration at time zero and A is the area of the cell monolayer.
A general note: Caco-2 monolayers are a common model of the intestinal barrier.

The target in data set [2] is T1, human FXRalpha ligand binding domain (LBD) (Homo sapiens, UniProt Q96RI1).
T1 construct: made in house; host or cells: E. coli BL21(DE3), vector pDEST15
T1 sequence (Q96RI1 187-472 isoform Q96RI1-2): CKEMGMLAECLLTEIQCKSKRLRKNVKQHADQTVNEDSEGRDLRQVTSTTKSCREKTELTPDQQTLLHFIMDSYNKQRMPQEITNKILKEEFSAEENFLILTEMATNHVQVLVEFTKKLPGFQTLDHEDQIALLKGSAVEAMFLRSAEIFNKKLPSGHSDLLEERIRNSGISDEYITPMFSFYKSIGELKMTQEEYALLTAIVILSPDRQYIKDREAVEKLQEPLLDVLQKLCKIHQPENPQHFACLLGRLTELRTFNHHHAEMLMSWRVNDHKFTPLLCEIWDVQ
The data set is described as follows: FRET activity assay (ligand mediated cofactor peptide interaction, LANCE). The class given is biochemical. The conditions noted are these: GST-FXR-LBD / biotinylated SRC-1 peptide (676-700). The protocol: Determination of a ligand mediated cofactor peptide interaction to quantify ligand binding to the nuclear receptor Farnesoid X Receptor (FXR) was performed as follows:
Preparation of human farnesoid X receptor (FXR) alpha ligand binding domain: The human FXRalpha ligand binding domain (LBD) was expressed in E. coli strain BL21(DE3) as an N-terminally glutathione-[…] (GST) tagged fusion protein. The DNA encoding the FXR ligand binding domain was cloned into vector pDEST15 (Invitrogen). Expression was under control of an IPTG inducible T7 promoter. The amino acid boundaries of the ligand binding domain were amino acids 187-472 of Database entry NM_005123 (RefSeq). Expression and purification of the FXR-LBD: An overnight preculture of a transformed E. coli strain was diluted 1:20 in LB-Ampicillin medium and grown at 30° C. to an optical density of OD600=0.4-0.6. Gene expression was then induced by addition of 0.5 mM IPTG. Cells were incubated an additional 6 h at 30° C., 180 rpm. Cells were collected by centrifugation (7000×g, 7 min, room temperature). Per liter of original cell culture, cells were resuspended in 10 ml lysis buffer (50 mM Glucose, 50 mM Tris pH 7.9, 1 mM EDTA and 4 mg/ml lysozyme) and left on ice for 30 min. Cells were then subjected to sonication and cell debris removed via centrifugation (22000×g, 30 min, 4° C.). Per 10 ml of supernatant 0.5 ml prewashed Glutathione 4B sepharose slurry (Qiagen) was added and the suspension kept slowly rotating for 1 h at 4° C. Glutathione 4B sepharose beads were pelleted by centrifugation (2000 g, 15 sec, 4° C.) and washed twice in wash buffer (25 mM Tris, 50 mM KCl, 4 mM MgCl2 and 1M NaCl). The pellet was resuspended in 3 ml elution buffer per liter of original culture (elution buffer: 20 mM Tris, 60 mM KCl, 5 mM MgCl2 and 80 mM glutathione added immediately prior to use as powder). The suspension was left rotating for 15 min at 4° C., the beads pelleted and eluted again with half the volume of elution buffer than the first time. The eluates were pooled and dialysed overnight in 20 mM Hepes buffer (pH 7.5) containing 60 mM KCl, 5 mM MgCl2 as well as 1 mM dithiothreitol and 10% (v/v) glycerol. The protein was analysed by SDS-Page.
The method measures the ability of putative ligands to modulate the interaction between the purified bacterial expressed FXR ligand binding domain (LBD) and a synthetic biotinylated peptide based on residues 676-700 of SRC-1 (LCD2, 676-700). The sequence of the peptide used was B-[…]-COOH where the N-terminus was biotinylated (B). The ligand binding domain (LBD) of FXR was expressed as fusion protein with GST in BL-21 cells using the vector pDEST15. Cells were lysed by sonication, and the fusion proteins purified over glutathione sepharose (Pharmacia) according to the manufacturers instructions. For screening of compounds for their influence on the FXR-peptide interaction, the Perkin Elmer LANCE technology was applied. This method relies on the binding dependent energy transfer from a donor to an acceptor fluorophor attached to the binding partner of interest. For ease of handling and reduction of background from compound fluorescence LANCE technology makes use of generic fluorophore labels and time resolved detection Assays were done in a final volume of 2 5 μl in a 384 well plate, in a Tris-based buffer (20 mM Tris-HCl pH 7,5; 60 mM KCl, 5 mM MgCl2; 35 ng/μl BSA), containing 20-60 ng/well recombinantly expressed FXR-LBD fused to GST, 200-600 nM N-terminally biotinylated peptide, representing SRC1 aminoacids 676-700, 200 ng/well Streptavidin-xIAPC conjugate(Prozyme) and 6-10 ng/well Eu W1024 antiGST (Perkin Elmer). DMSO content of the samples was kept at 1%. After generation of the assay mix and diluting the potentially FXR modulating ligands, the assay was equilibrated for one hour in the dark at room temperature in FIA-plates black 384 well (Greiner). […]
On the technique in general: In TR-FRET formats the signal depends on donor and acceptor labels being close together.

The nature of data set [3]: Plasma protein binding assay (equilibrium dialysis). The class given is in vitro ADME. Conditions: 37° C., extrapolated fraction unbound. As for the experimental part: Equilibrium dialysis is used to determine the extent of binding of a compound to plasma proteins. A semi-permeable membrane separates a protein-containing compartment from a protein-free compartment. The system is allowed to equilibrate at 37° C. The test compound present in each compartment is quantified by LC-MS/MS. The extent of binding is reported as a fraction unbound (fu) value which is calculated as fu=1−(PC−PF)/PC. PC=Test compound concentration in protein-containing compartment. PF=Test compound concentration in protein-free compartment. In addition to using whole plasma, the plasma protein binding assay can be performed using two other ratios of plasma (10% or 50% plasma in buffer v/v). The following equations are used to convert from a fraction unbound at 10% or 50% to a fraction unbound at 100%: […]

Data set [4] in a line: Rat microsomal stability assay. The class given is in vitro ADME. Conditions: liver microsomes, 37° C., NADPH, 45 minute, read-out: Rat liver microsome clearance. The protocol: Compound stability towards rat liver microsomes was determined as follows: The microsomes are incubated with the test compound at 37° C. in the presence of the co-factor, NADPH, which initiates the reaction. The reaction is terminated by the addition of methanol. Following centrifugation, the supernatant is analysed on the LC-MS/MS. The disappearance of test compound is monitored over a 45 minute time period. The In peak area ratio (compound peak area/internal standard peak area) is plotted against time and the gradient of the line determined. Finally, Intrinsic clearance CLint is computed by the following equations: elimination rate konstant (k)=−gradient; t1/2 (min)=0.693/k; V (μl/mg)=volume of incubation (μl)/protein in incubation (mg); CLint (μl/min/mg protein)=V*0.693/t1/2.
(In general: Liver microsomes are a subcellular fraction often used to study metabolism.)

The nature of data set [5]: Rat hepatocyte stability assay. The class given is in vitro ADME. Conditions: hepatocytes, 37° C., 60 minute, read-out: Rat hepatocyte clearance. The protocol:
Compound stability towards rat hepatocytes was determined as follows: The hepatocytes are incubated with the test compound at 37° C. Samples are removed at the appropriate time points into methanol to terminate the reaction. Following centrifugation, the supernatant is analysed by LC-MS/MS. The disappearance of test compound is monitored over a 60 minute time period. The In peak area ratio (compound peak area/internal standard peak area) is plotted against time and the gradient of the line determined. Finally, half life t1/2 and Intrinsic clearance CLint is computed by the following equations: elimination rate konstant (k)=−gradient; t1/2 (min)=0.693/k; V (μl/10^6 cells)=volume of incubation (μl)/number of cells (*10^6); CLint (μl/min/10^6cells protein)=V*0.693/t1/2.

A short description of data set [6]: Aqueous solubility assay, Protocol B, shake-flask method. It is filed as physicochemical. Conditions: aqueous buffer, 10 mM PBS buffer pH 7.4, 1% MeOH, room temperature, read-out: Aqueous solubility pH 7.4 (μM) (±standard deviation), shake-flask method. The protocol:
Protocol B, shake-flask method:
Sample preparation: Sample and standard solution preparation is performed by mixing equal volumes of acetonitrile containing the internal standard (1 μM final concentration) with sample and calibration standard solutions (100 μl). After vigorously shaking (10 seconds) the samples are centrifuged (6000 g) for 5 minutes at 20° C. Aliquots of the particle-free supernatants are transferred to 200 μl sample vials and subsequently subjected to LC-MS/MS. Assay procedure: Test concentration was 100 μM in 10 mM PBS buffer pH 7.4 with a final MeOH concentration of 1%. The volume of the incubation solution was 500 μl. Depending on each compound's solubility in MeOH, the stock concentration and the incubation concentration was adapted. The test solutions in quadruplicates were shaken at 300 rpm over a 20 hours period at room temperature, followed by centrifugation at 20000 g for 30 minutes to separate the solid phase. 100 μl of particle free sample are added to 100 μl acetonitrile containing the internal standard. The aqueous solubility of the compounds was determined by measuring the concentration of the PBS buffer supernatant by HPLC-MS/MS.

Consider `CC(C)c1onc(-c2c(Cl)cccc2Cl)c1COc1ccc(NC(=O)c2ccc(C(=O)O)cc2)c(C(F)(F)F)n1` [Example 6, N-{6-[3-(2,6-dichloro-phenyl)-5-isopropyl-isoxazol-4-ylmethoxy]-2-trifluoromethyl-pyridin-3-yl}-terephthalamic acid], for which, in data set [1], the solubility at 24 h is > 100 µM. For the same compound, the Papp A→B at 2 h in the data set “Caco-2 permeability” stood at 34 ×10⁻⁶ cm/s. In data set [2], the IC50 is ≤ 1 µM. The fraction unbound in data set [3] is 0.0005.

As for `CC(C)c1onc(-c2c(Cl)cccc2Cl)c1COc1ccc(N(C)C(=O)c2ccc(C(=O)N(C)C)cc2)c(C(F)(F)F)n1` [Example 24], the melting point is 166.8 to 167.8 °C. In addition, in the data set “Caco-2 permeability”, the Papp A→B at 2 h came out at 46 ×10⁻⁶ cm/s. Besides, in data set [2], the IC50 was ≤ 1 µM. Besides, the fraction unbound in data set [3] is 0.0009.

In the case of `CC(C)c1onc(-c2c(Cl)cccc2Cl)c1COc1ccc(N(C)C(=O)c2ccc(-c3nnn[nH]3)cc2)c(C(F)(F)F)n1` [Example 25, N-(6-((3-(2,6-Dichlorophenyl)-5-isopropylisoxazol-4-yl)methoxy)-2-(trifluoromethyl)pyridin-3-yl)-N-methyl-4-(1H-tetrazol-5-yl)benzamide], in data set [2], the IC50 is ≤ 1 µM. In addition, the fraction unbound in data set [3] is 0.0004. Besides, the microsomal CLint in data set [4] amounted to 169 µL/min/mg. For the same compound, in data set [5], the hepatocyte CLint was determined as 2.5 µL/min/1e6 cells.

As for `CC(C)c1onc(-c2c(Cl)cccc2Cl)c1COc1cnc(N(C)Cc2cccc(C(=O)O)c2)c(Cl)c1` [Example 32, 3-(((3-Chloro-5-((3-(2,6-dichlorophenyl)-5-isopropylisoxazol-4-yl)methoxy)pyridin-2-yl)(methyl)amino)methyl)benzoic acid], the IC50 in data set [2] was ≤ 1 µM. In addition, the solubility at 20 h in data set [6] worked out at 129 µM (≈ 72.4 µg/mL).
